Ends that are not written are not given here.
Experiments:
[1] = test system: HEK293 cells overexpressing human a-syn (WT); experiment: Cytotoxicity screen of lentiviral 7-mer peptide library, Alpha Syn (WT) cells under MG132; type: cell-based
Text: (§1) A screening system to discover candidate peptides to perturb endogenous PPIs based on libraries of short linear interaction motifs that mediate a large fraction (˜30%) of human PPIs (10-12) was recently developed. Here, a lentiviral library of 50,549 7-mer peptide motifs (13) on a green fluorescent protein (GFP) scaffold (FIG. 1A) was used. Cells in a pooled format were infected and the amino acid sequence of each peptide served as its own barcode. By using a low multiplicity of infection followed by puromycin selection, each infected cell expressed one unique GFP-peptide. Peptides that reduced a-syn-mediated cytotoxicity or a-syn oligomers in parallel (FIG. 1A), were screened for.
(§2) To cause cytotoxicity relevant to PD, proteostatic stress in HEK293 cells was induced by inhibiting the proteasome with MG132 and inducing the overexpression of human a-syn (WT) from idiopathic PD in one screen and the more toxic A53T mutant from familial PD in a second screen. The combination of a-syn overexpression and pharmacological proteasome inhibition led to death of most cells, with only those that expressed a protective peptide surviving. By extracting genomic DNA from the surviving cells and amplifying the peptide coding sequences, the protective peptides (FIG. 1A) were identified.
(§3) PCR primers that included the Illumina adaptor sequences were used to amplify peptide coding sequences recovered from selection and cell sorting. Results were demultiplexed, and peptide counts were tallied. After demultiplexing, only reads with an average quality Phred score of >30 were selected, and frequencies were calculated. Finally, the reads were then normalized to the total number of peptides read for that sample population, and a scalar factor was applied. In parallel, ˜25 individual colonies were Sanger sequenced to compare to the NGS data.
(§4) Lentiviruses were made in a 15 cm dish format by transfecting packaging cells (293T) with a three-plasmid system as previously described. Viral transduction of HEK293T cells, tet-off split luciferase a-syn cells, tet-off parent cells, and SH-SY5Y cells were performed with a multiplicity of infection of 0.3 (MOI=0.3). Infected cells were selected in puromycin-containing medium to eliminate uninfected cells and three aliquots of cells were collected for sampling of the initial (TO) cell population. Cells were treated with MG132 at concentrations of 0 μM, 10 μM, 25 μM or 50 μM. For the cell viability screen, surviving cells were collected and gDNA was extracted for identification of peptide inhibitors of cell toxicity. For the inhibition of a-syn aggregation screen, split YFP-a-syn constructs were transfected following stable expression of the peptides. Cells were sorted based on their GFP fluorescence intensities with a FACSVantage SE cell sorter (BD Bioscience).
(§5) Genomic DNA (gDNA) from peptide expressing cells at different time-points was extracted using QIAamp DNA Blood Mini Kit. PCR amplifications of peptides from gDNA in parallel with the lentiviral plasmid library (naïve library) were performed using indexed Illumina PCR primers to incorporate both the Illumina adapter sequences and indexing sequences. Each 50 μl reaction contained 3.2 μg of template, 2×PCR buffer, 2× enhancer solution, 300 μM each dNTP, 900 nM each of Adapter A (5′-[…]-[…]-3′) (SEQ ID NO: 42) and Adapter B (5′-[…]-[…]-3′) (SEQ ID NO: 43), 1 mM MgSO4, 3.75 units of Platinum Pfx polymerase, and water to 50 μl. The PCR reaction was performed by denaturing at 94° C. for 5 minutes, followed by cycling (94° C. for 30 seconds, 65° C. for 30 seconds, 68° C. for 30 seconds)×28 cycles, 68° C. for 5 minutes, then cooling to 4° C. The resulting 244 bp product was purified by electrophoresis in 2% agarose followed by gel extraction. Peptide libraries were quantified using Quant-It assay (Invitrogen) and pooled. […]

[2] = test system: HEK293 cells overexpressing A53T a-syn; experiment: Cytotoxicity screen of lentiviral 7-mer peptide library, Alpha syn A53T cells under MG132; type: cell-based, human
Text: as §1, §2, §3, §4, §5

[3] = target: T1, CHMP2B (Homo sapiens, UniProt Q9UQN3); experiment: a-syn competition fluorescence polarization assay (FITC-Pdpep1.3 and CHMP2B); type: binding; conditions: 50 nM FITC-Pdpep1.3, 1 μM CHMP2B, a-syn titrated
T1 construct: against CHMP2B 1-199 truncation and CHMP2B full length; His tag (implied by Ni-NTA purification; pET-DEST42 vector); made in house; host or cells: E. coli Overexpress C41
T1 sequence (Q9UQN3 whole entry, the tested form may be a part): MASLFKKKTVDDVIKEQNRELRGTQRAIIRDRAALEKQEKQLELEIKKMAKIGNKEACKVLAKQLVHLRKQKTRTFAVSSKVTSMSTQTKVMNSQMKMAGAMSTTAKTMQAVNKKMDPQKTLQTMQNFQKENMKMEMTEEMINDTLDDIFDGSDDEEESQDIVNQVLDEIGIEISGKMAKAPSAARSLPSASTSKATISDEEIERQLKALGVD

[4] = test system: C. elegans PDE dopaminergic neurons; experiment: C. elegans neurite length assay (A30P a-syn); type: in vivo; conditions: A30P human a-syn; RFP-tagged peptide version based on the nematode sequence of CHMP2B
Procedure: C. elegans strains were grown and maintained under standard conditions at 22-23° (4). BZ555 [dat-1p::gfp] was obtained from the C. elegans Genetics Center (CGC; University of Minnesota, St Paul, MN, USA), TWH1 ([dat-1p::a-syn(A30P), ges-1p::DsRed]; [dat-1p::gfp]) was obtained by crossing BZ555 with A30P a-syn transgenic animals (kindly provided by Dr. Takeshi Iwatsubo, University of Tokyo) (5).
The peptide construct (pPD97.78_osm-6p_TagRFP_wpeptide) was obtained by subcloning the following fragments into NheI and SpeI sites of pPD97.78 (A. Fire): NheI-AgeI […] fragment (2.4 kb) obtained by PCR using primer set 5′-[…]-3′ (SEQ ID NO: 44) and 5′-[…]-3′ (SEQ ID NO: 45) and N2 genomic DNA as a template, AgeI-EcoRI TagRFP fragment obtained by PCR using primer set 5′-gttgaccggt[…]-3′ (SEQ ID NO: 46) and 5′-ggcagaattcga[…]-3′ (SEQ ID NO: 47), EcoRI-SmaI peptide ([…] (SEQ ID NO: 48)) fragment digested from CMV_[…]_worm, SmaI-SpeI unc-54 3′-UTR fragment digested from pPD95.75 (Fire vector). […]
Each plasmid (40 ng/μl) was injected with a co-injection marker, sur-5p::mCherry into TWH1. The animals carrying the extrachromosomal arrays were transferred to new plates, and their progenies were analyzed at the adult stage under a widefield microscope (Zeiss AxioObserver). […]

[5] = normalized Illumina peptide counts, 0 uM MG132
[6] = normalized Illumina peptide counts, 10 µM MG132
[7] = normalized Illumina peptide counts, 25 µM MG132
[8] = normalized Illumina peptide counts, 50 µM MG132

| Substance | Slope Norm Reads [1] | Reads 0 uM MG132 [1, 5] | Reads 10 UM MG132 [1, 6] | Reads 25 UM MG132 [1, 7] | Reads 50 UM MG132 [1, 8] | Slope Norm Reads [2] | Reads 0 uM MG132 [2, 5] | Reads 10 UM MG132 [2, 6] | Reads 25 UM MG132 [2, 7] | Reads 50 UM MG132 [2, 8] | competition with a-syn for binding to CHMP2B [3] | neurite shortening of PDE dopaminergic neurons [4] |
| --- | --- | --- | --- | --- | --- | --- | --- | --- | --- | --- | --- | --- |
| IPIQLKA [PDpep1, top hit of all screens; maps to CHMP2B residues 203-209] | 3.45 | 90 | 1 | 1629 | 3375 | 40.54 | 168 | 20 | 3859 | 13308 | – | – |
| DEEIERQLKALG [PDpep1.3] | – | – | – | – | – | – | – | – | – | – | competed for binding to CHMP2B | partially rescued |

From patent US20250051391A1, “PEPTIDE INHIBITORS AND METHODS FOR INHIBITING PROTEIN AGGREGATION IN NEURONS AND NEURODEGENERATIVE DISEASES” (THE GOVERNING COUNCIL OF THE UNIVERSITY OF TORONTO, priority 2021, published 2025)
